Assay results as given in ChEMBL document CHEMBL1146322, “Synthesis and biological evaluation of some 5-ethoxycarbonyl-6-isopropylamino-4-(substitutedphenyl)aminopyrimidines as potent analgesic and anti-inflammatory agents” (Bioorg Med Chem Lett, 2007).

Columns and labels:
[1] = test system: Rattus norvegicus; experiment: Antiinflammatory activity in rat at 50 mg/kg, po; type: functional
[2] = test system: Mus musculus; experiment: Analgesic activity in Albino mouse assessed as inhibition of acetic acid-induced writhing at 50 mg/kg, po; type: functional
[3] = species: Rattus norvegicus; experiment: Toxicity in rat assessed as ulcerogenic potential; type: organism-based; details: in vivo

Structure (SMILES)	inhibition in vivo at 50 mg/kg [1]	inhibition in vivo at 50 mg/kg [2]	UI [3]
CCOC(=O)c1c(Nc2ccc([N+](=O)[O-])cc2)ncnc1NC(C)C	84.6%	77.4%	–
CCOC(=O)c1c(Nc2ccc(C)cc2)ncnc1NC(C)C	89.7%	72%	0.29
CCOC(=O)c1c(Nc2ccc(S(N)(=O)=O)cc2)ncnc1NC(C)C	87.7%	72.6%	0.241
CCOC(=O)c1c(Nc2ccc(Cl)cc2)ncnc1NC(C)C	30.9%	70.2%	–
CCOC(=O)c1c(Nc2ccc(OC)cc2)ncnc1NC(C)C	62.7%	85.1%	–
CCOC(=O)c1c(NC(C)C)ncnc1Oc1ccccc1	55.5%	70.2%	–
Cc1ccc(-c2cc(C(F)(F)F)nn2-c2ccc(S(N)(=O)=O)cc2)cc1 [CELECOXIB]	82.1%	–	0.104
O=C([O-])Cc1ccccc1Nc1c(Cl)cccc1Cl.[Na+] [DICLOFENAC SODIUM]	–	78%	0.805
